Laboratory results published in patent publication US20240201205A1, “METHOD FOR DETECTING NEUROLOGICAL DISEASES USING SUPRAMOLECULE POLYMER THERAPEUTICS” (The Regents of the University of California, priority 2022, published 2024).

Experiments:
[1] = tested on: Alzheimer's disease tau paired-helical filaments (PHFs); test: Cryo-EM co-structure of GTP-1 with Alzheimer's disease tau paired-helical filaments; type: binding, human; conditions: AD patient filaments
Protocol: Samples were incubated with 20 uM GTP-1 prior to vitrification. […] The micrograph images and their 2D classification reveal well-resolved filaments primarily in the PHF conformation, with crossover distances ranging from 700-800 Å. A minor population of straight filaments (SF) was also identified; however, further structural characterization was not feasible due to limited abundance. […] The PHF structure is comprised of two protofilaments related by two-fold symmetry with a 2.37 Å rise and 179.45° twist, consistent with previously reported structures of PHFs prepared from AD brains (13, 15).
Tau PHF filament purification. Filament purification was based on Fitzpatrick et al., 2017^1. […]
Cryo-EM sample preparation and data collection. […] For the tau PHF, 3 μL of purified filaments mixed with GTP-1 was added to a glow-discharged 200 mesh 1.2/1.3R Au Quantifoil grid for 10 seconds before blotting for 2 seconds, and then a second 3 μL aliquot was added for 3 seconds and blotted for 1 second before being plunge frozen in liquid ethane using a FEI Vitrobot Mark IV (Thermo Fisher Scientific). For the synuclein ligands, 3 μL of purified filaments mixed with compound was added to a 200 mesh 1.2/1.3R Au Quantifoil grid coated with a 2 nm thick layer of carbon, which had not been glow discharged. […]

[2] = target: T1, α-synuclein fibrils isolated from an MSA patient sample (Homo sapiens, UniProt P37840); test: Cryo-EM co-structures of compounds with α-synuclein fibrils from MSA patient; type: binding; conditions: fibrils from MSA patient sample; 20 μM ligand
T1 construct: fresh-frozen tissue from the cerebellum of patients clinically and neuropathologically diagnosed with MSA; from tissue; host or cells: cerebellum of MSA patients (sarkosyl-insoluble filament preparation)
Protocol: MSA filament purification. Filament purification was based on Schweigenhauser et al., 2020^2. Briefly, 1-2 g of fresh-frozen tissue from the cerebellum of patients clinically and neuropathologically diagnosed with MSA was homogenized at 20 mL/g of tissue in 10 mM Tris-HCl (pH 7.4), 800 mM NaCl, 1 mM EGTA, and 10% sucrose. A final concentration of 1% N-laurosarcosinate (w/v) was added to the homogenates, and these mixtures were incubated at 37° C. for 30 minutes. Homogenates were then centrifuged at 10,000 g for 10 minutes, and the supernatant was kept and then centrifuged at 100,000 g for 20 minutes. The pellets were resuspended at 500 μL/g of frozen tissue in 10 mM Tris-HCl (pH 7.4), 800 mM NaCl, 1 mM EGTA, and 10% sucrose. This was followed by another centrifugation at 3,000 g for 5 minutes. The supernatant was kept and diluted threefold with 50 mM Tris-HCl (pH 7.4), 150 mM NaCl, 10% sucrose, and 2% sarkosyl, followed by another centrifugation at 150,000 g for 1 hour. The final pellet resuspended in 30 mM Tris-HCl (pH 7.4) at a concentration of 100 μL/g frozen tissue.
Cryo-EM sample preparation and data collection. Purified frontal cortex and cerebellum tissue was incubated with 20 μM ligand for 45 minutes prior to freezing. For the tau PHF, 3 μL of purified filaments mixed with GTP-1 was added to a glow-discharged 200 mesh 1.2/1.3R Au Quantifoil grid for 10 seconds before blotting for 2 seconds, and then a second 3 μL aliquot was added for 3 seconds and blotted for 1 second before being plunge frozen in liquid ethane using a FEI Vitrobot Mark IV (Thermo Fisher Scientific). For the synuclein ligands, 3 μL of purified filaments mixed with compound was added to a 200 mesh 1.2/1.3R Au Quantifoil grid coated with a 2 nm thick layer of carbon, which had not been glow discharged. After 30 seconds, grids were blotted for 7.5 seconds at room temperature and 100% humidity. Grids were plunge frozen in liquid ethane using a FEI Vitrobot Mark IV. […] A defocus range of 0.8 to 1.8 μm was used with a total exposure time of 2.024 seconds fractionated into 0.025 seconds subframes. The total dose for each movie was 46 electrons/Å^2. Movies were motion-corrected using MotionCor2^3 in Scipion^4 and were Fourier cropped by a factor of 2 to a final pixel size of 0.834 Å per pixel.
Image processing. All image processing was done in RELION 4^5, and the same workflow was used for each dataset. Dose-weighted summed micrographs were imported into RELION 4. The contrast transfer function was estimated using CTFFIND-4.1^6. Filaments were manually picked and then segments were extracted with a box size of 900 pixels downscaled to 300 pixels. Contaminants and segments contributing to straight filaments were separated out using reference-free 2D class averaging. The remaining segments were re-extracted with a box size of 288 pixels without downscaling. An initial model was generated from a cylinder in RELION. One or more rounds of 3D classification with image alignment were performed, with helical rise and […] parameters fixed to eliminate obvious junk particles. One or more rounds of 3D auto-refinement was run using the best map from 3D classification low-pass filtered to 10 Å, allowing rise and twist parameters to vary. Maps were sharpened using the standard post-processing procedures in RELION.
Model building, refinement, and analysis. Prior to ligand placement, a single strand of a previously solved MSA or tau PHF filament structure^2 (PDB: 6XYQ) was refined against the density using Phenix^7. Refinement of the ligand binding pocket was done in COOT^8. Ligands were placed by hand in the density using Chimera^9. This model was then translated to give a stack spanning 5 rungs.

| SMILES | binding site on tau PHF [1] | binding to α-synuclein fibrils (cryo-EM co-structure) [2] |
| --- | --- | --- |
| FCCC1CCN(c2ccn3c(n2)nc2ccccc23)CC1 [GTP-1] | bound to a solvent exposed cleft (residues 351-360) | – |
| O=C(Cn1cc(-c2ccoc2)c(=O)c2ccc(N3CCCC3)cc21)Nc1ccccc1C(F)(F)F [Compound 149, 2-[3-(furan-3-yl)-4-oxo-7-(pyrrolidin-1-yl)-1,4-dihydroquinolin-1-yl]-N-[2-(trifluoromethyl)phenyl]acetamide] | – | bound to fibrils isolated from an MSA patient sample |
| CNc1nc(=O)n(-c2nc(-c3cc(C)cc(C)n3)oc2-c2ccc(F)c(F)c2)cc1F [compound 294] | – | bound to fibrils isolated from an MSA patient sample |
